Values quoted from earlier work in patent US20160000504A1, “METHOD FOR TRAINING IMMUNE CELLS USING MILLIMETER WAVE THERAPY” (Electrohealing Holdings, Inc., priority 2014, published 2016).
Structures can show the parent of a compound that is named as a salt.

Tested on: B16 melanoma cells
Conditions: 1 mg per kg thirty minutes prior to each treatment; MMWT 61.22 GHz, 5 day delay before first irradiation; groups seven and eight vs three and four (FIG. 2A vs FIG. 2B)

C=CCN1CC[C@]23c4c5ccc(O)c4O[C@H]2C(=O)CC[C@@]3(O)[C@H]1C5 [naloxone hydrochloride]
change in tumor size: effect of opioid antagonist on MMWT inhibition of tumor growth: blocks the beneficial effects of MMWT
